Assay results taken from patent US7491825B2, “Basic non-peptide bradykinin antagonists and pharmaceutical compositions therefrom” (Menarini Ricerche S.p.A., priority 2002, dated 2009).
Counter-ions that a name gives are not always drawn.

Each compound was assayed against T1, human B2 receptor (Homo sapiens, UniProt P30411) (assay: binding to the human B2 receptor expressed in human fibroblasts W138). Conditions: not given.
T1 construct: human B2 receptor expressed in human fibroblasts W138; endogenous in cells; host or cells: human fibroblasts W138 (WI-38)
T1 sequence (P30411 1-391): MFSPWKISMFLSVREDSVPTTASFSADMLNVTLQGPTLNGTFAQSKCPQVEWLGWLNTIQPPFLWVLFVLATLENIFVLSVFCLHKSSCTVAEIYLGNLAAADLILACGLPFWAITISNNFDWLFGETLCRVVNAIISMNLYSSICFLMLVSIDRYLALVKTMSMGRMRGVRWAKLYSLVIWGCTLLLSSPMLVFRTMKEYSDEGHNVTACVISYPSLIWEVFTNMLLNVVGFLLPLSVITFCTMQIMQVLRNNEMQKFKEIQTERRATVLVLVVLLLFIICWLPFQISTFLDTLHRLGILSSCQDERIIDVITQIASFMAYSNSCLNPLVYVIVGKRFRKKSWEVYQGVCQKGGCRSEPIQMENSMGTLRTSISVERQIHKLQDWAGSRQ
Description: In the following the binding values are reported expressed as pKi.

Row | Ki | Compound
1 | 0.501 nM | Cc1cc(C)c2cccc(OCc3c(Cl)ccc(S(=O)(=O)NC4(C(=O)N5CCN(C(=N)NCCCCCCN)CC5)CCCC4)c3Cl)c2n1 [Example 95, N-(6-Amino-hexyl)-4-{1-[2,4-dichloro-3-(2,4-dimethyl-quinolin-8-yloxymethyl)-benzenesulfonylamino]-cyclopentanecarbonyl}-piperazine-1-carboxamidine bis trifluoroacetate]
2 | 0.631 nM | Cc1ccc2cccc(OCc3c(Cl)ccc(S(=O)(=O)NC(C)(C)C(=O)N4CCN(C(=N)N)CC4)c3Cl)c2n1 [Example 20, 4-{2-[2,4-Dichloro-3-(2-methyl-quinolin-8-yloxymethyl)-benzenesulfonylamino]-2-methyl-propionyl}-piperazine-1-carboxamidine]
3 | 0.501 nM | Cc1cc(C)c2cccc(OCc3c(Cl)ccc(S(=O)(=O)NC4(C(=O)N5CCC(N6CCN(C(=O)[C@@H](N)CCCNC(=N)N)CC6)CC5)CCCC4)c3Cl)c2n1 [Example 38]
4 | 0.398 nM | Cc1cc(C)c2cccc(OCc3c(Cl)ccc(S(=O)(=O)NC4(C(=O)N5CCC(C[N+](C)(C)CCCCC[N+](C)(C)C)CC5)CCCC4)c3Cl)c2n1 [Example 86, {5-[(1-{1-[2,4-Dichloro-3-(2,4-dimethyl-quinolin-8-yloxymethyl)-benzensulfonylamino]-cyclopentanecarbonyl}-piperidin-4-ylmethyl)-dimethyl-ammonium]-pentyl}-trimethyl-ammonium tris trifluoroacetate]
5 | 0.537 nM | Cc1ccc2cccc(OCc3c(Cl)ccc(S(=O)(=O)NC(C)(C)C(=O)N4CCN(C(=O)CC5CCNCC5)CC4)c3Cl)c2n1 [Example 25, N-{2-[4-2-(Piperidin-4-yl-acetyl)-piperazin-1-yl]-1,1-dimethyl-2-oxo-ethyl}-2,4-dichloro-3-(2-methyl-8-quinolinoxymethyl)-benzenesulfonamide bis trifluoroacetate]
6 | 0.398 nM | CCN=C(NCC)NCCCC[C@H](N)C(=O)N1CCN(C(=O)C2(NS(=O)(=O)c3ccc(Cl)c(COc4cccc5c(C)cc(C)nc45)c3Cl)CCCC2)CC1 [Example 43, (2S)—N-(1-{4-[2-Amino-6-(N′,N″-diethyl-guanidino)-hexanoyl]-piperazine-1-carbonyl}-cyclopentyl)-2,4-dichloro-3-(2,4-dimethyl-quinolin-8-yloxymethyl)-benzenesulfonamide]
7 | 0.398 nM | Cc1ccc2cccc(OCc3c(Cl)ccc(S(=O)(=O)NC(C)(C)C(=O)N4CCN(C(=N)NCCCN)CC4)c3Cl)c2n1 [Example 31, N-(3-Amino-propyl)-4-{2-[2,4-dichloro-3-(2-methyl-quinolin-8-yloxymethyl)-benzenesulfonylamino]-2-methyl-propionyl}-piperazine-1-carboxamidine tris trifluoroacetate]

Same assay, conditions: human B2 receptor expressed in human fibroblasts W138

Row | pKi | Compound
8 | 9.9 | Cc1cc(C)c2cccc(OCc3c(Cl)ccc(S(=O)(=O)NC4(C(=O)N5CCN(C(=O)[C@H](CCCCN)[N+](C)(C)C)CC5)CCCC4)c3Cl)c2n1 [Example 90, N-[1-[4-(2-(S)-Trimethylammonium-6-amino-hexanoyl)-piperazin-1-yl]-cyclopentyl]-2,4-dichloro-3-(2,4-dimethyl-quinolin-8-yloxymethyl)-benzenesulfonamide tris trifluoroacetate]
9 | 9.4 | Cc1cc(C)c2cccc(OCc3c(Cl)ccc(S(=O)(=O)NC4(C(=O)N5CCN(C(=O)CCC[N+](C)(C)C)CC5)CCCC4)c3Cl)c2n1 [Example 83, N-{1-[4-(4-Trimethylammonium-butanoyl)-piperazine-1-carbonyl]-cyclopentyl}-2,4-dichloro-3-(2,4-dimethyl-quinolin-8-yloxymethyl)-benzenesulfonamide bis trifluoroacetate]
10 | 9.2 | Cc1cc(C)c2cccc(OCc3c(Cl)ccc(S(=O)(=O)NC(C)(C)C(=O)N4CCN(C(=O)[C@@H](N)CCCCN(C)C)CC4)c3Cl)c2n1 [Example 45, N-[2-[4-(2-(S)-Amino-6-dimethylamino-hexanoyl)-piperazin-1-yl]-1,1-dimethyl-2-oxo-ethyl]-2,4-dichloro-3-(2,4-dimethyl-quinolin-8-yloxymethyl)-benzenesulfonamide]
11 | 9.2 | Cc1cc(C)c2cccc(OCc3c(Cl)ccc(S(=O)(=O)NC4(C(=O)N5CCN(C(=O)[C@@H](N)CCCC[N+](C)(C)C)CC5)CCCC4)c3Cl)c2n1 [Example 79, N-{1-[4-(2-(S)-Amino-6-trimethylammonium-hexanoyl)-piperazine-1-carbonyl]-cyclopentyl}-2,4-dichloro-3-(2,4-dimethyl-quinolin-8-yloxymethyl)-benzenesulfonamide tris trifluoroacetate]

Row | Compound | pKi
12 | Cc1cc(C)c2cccc(OCc3c(Cl)ccc(S(=O)(=O)NC4(C(=O)N5CCN(C(=O)C[C@@H](N)CCC[N+](C)(C)C)CC5)CCCC4)c3Cl)c2n1.Cc1cc(C)c2cccc(OCc3c(Cl)ccc(S(=O)(=O)NC4(C(=O)N5CCN(C(=O)C[C@@H](N)CCC[N+](C)(C)C)CC5)CCCC4)c3Cl)c2n1.O=C([O-])C(F)(F)F.O=C([O-])C(F)(F)F [Example 107, [4-(S)-Amino-6-(4-{1-[2,4-dichloro-3-(2,4-dimethyl-quinolin-8-yloxymethyl)-benzenesulfonylamino]-cyclopentanecarbonyl}-piperazin-1-yl)-6-oxohexyl]-trimethylammonium bis trifluoroacetate] | 9.7
13 | 2,4-Dichloro-3-(2-methyl-quinolin-8-yloxymethyl)-benzenesulfinic acid (2-{4-[2-R-amino-5-(N′,N″-diethyl-guanidino)-pentanoyl]-piperazin-1-yl}-1,1-dimethyl-2-oxo-ethyl)-amide [Example 42] | 9.4
14 | Cc1cc(C)c2cccc(OCc3c(Cl)ccc(S(=O)(=O)NC4(C(=O)N5CCN(C(=O)C[C@H](CCCNC(=NC6CCCCC6)NC6CCCCC6)NC(=NC6CCCCC6)NC6CCCCC6)CC5)CCCC4)c3Cl)c2n1.O=C(O)C(F)(F)F.O=C(O)C(F)(F)F.O=C(O)C(F)(F)F [Example 80, N-(1-{4-[3-(S),6-Bis-(N′,N″-dicyclohexyl-guanidino)-hexaoyl]-piperazine-1-carbonyl}-cyclopentyl)-2,4-dichloro-3-(2,4-dimethyl-quinolin-8-yloxymethyl)-benzensulfonamide tris trifluoroacetate] | 9.2

Same assay, conditions: human B2 receptor expressed in human fibroblasts W138; read-out: pKi (converted)

Row | Ki | Compound
15 | 0.631 nM | Cc1cc(C)c2cccc(OCc3c(Cl)ccc(S(=O)(=O)NC4(C(=O)N5CCN(C[C@H](N)CCCCN)CC5)CCCC4)c3Cl)c2n1 [Example 98, 2,4-Dichloro-N-{1-[4-(2(R),6-diamino-hexyl)-piperazine-1-carbonyl]-cyclopentyl}-3-(2,4-dimethyl-quinolin-8-yloxymethyl)-benzenesulfonamide tetra trifluoroacetate]
16 | 0.398 nM | CNCCCCCNCC1CCN(C(=O)C2(NS(=O)(=O)c3ccc(Cl)c(COc4cccc5c(C)cc(C)nc45)c3Cl)CCCC2)CC1 [Example 106, 2,4-Dichloro-3-(2,4-dimethyl-quinolin-8-yloxymethyl)-N-(1-{4-[(5-methylamino-pentylamino)-methyl]-piperidine-1-carbonyl}-cyclopentyl)-benzenesulfonamide tris trifluoroacetate]
17 | 0.794 nM | Cc1ccc2cccc(OCc3c(Cl)ccc(S(=O)(=O)NC(C)(C)C(=O)N4CCN(C(=O)C[C@@H](N)CCCCN(C)C)CC4)c3Cl)c2n1 [Example 30, N-{2-[4-(3-(S)-Amino-7-dimethylamino-heptanoyl)-piperazin-1-yl]-1,1-dimethyl-2-oxo-ethyl}-2,4-dichloro-3-(2-methyl-8-quinolinoxymethyl)-benzenesulfonamide tris trifluoroacetate]
18 | 0.501 nM | CC[C@@](C)(NS(=O)(=O)c1ccc(Cl)c(COc2cccc3c(C)cc(C)nc23)c1Cl)C(=O)N1CCN(C(=O)[C@@H](N)CCCCN(C)C)CC1 [Example 61, (R)—N-[1-[4-(2-(S)-Amino-6-dimethylamino-hexanoyl)-piperazine-1-carbonyl]-1-methyl-propyl]-2,4-dichloro-3-(2,4-dimethyl-quinolin-8-yloxymethyl)-benzenesulfonamide tris trifluoroacetate]
19 | 0.631 nM | Cc1cc(C)c2cccc(OCc3c(Cl)ccc(S(=O)(=O)NC4(C(=O)N5CCN(C(=O)C[N+](C)(C)C)CC5)CCCC4)c3Cl)c2n1 [Example 82, N-{1-[4-(2-Trimethylammonium-acetyl)-piperazine-1-carbonyl]-cyclopentyl}-2,4-dichloro-3-(2,4-dimethyl-quinolin-8-yloxymethyl)-benzenesulfonamide bis trifluoroacetate]
20 | 0.631 nM | Cc1cc(C)c2cccc(OCc3c(Cl)ccc(S(=O)(=O)NC4(C(=O)N5CCN(C(=O)[C@@H](N)CC6CCNCC6)CC5)CCCC4)c3Cl)c2n1 [Example 81, N-{1-[4-(2-(S)Amino-3-piperidin-4-yl-propionyl)-piperazine-1-carbonyl]-cyclopentyl}-2,4-dichloro-3-(2,4-dimethyl-quinolin-8-yloxymethyl)-benzenesulfonamide tris trifluoroacetate]
21 | 0.631 nM | Cc1ccc2cccc(OCc3c(Cl)ccc(S(=O)(=O)NC(C)(C)C(=O)N4CCN(C(=O)C[C@@H](N)CCCN(C)C)CC4)c3Cl)c2n1 [Example 29, N-{2-[4-(3-(S)-Amino-6-dimethylamino-hexanoyl)-piperazin-1-yl]-1,1-dimethyl-2-oxo-ethyl}-2,4-dichloro-3-(2-methyl-8-quinolinoxymethyl)-benzenesulfonamide tris trifluoroacetate]
